Results on 2 compounds are retold here after patent publication US6949648B2, “Condensed pyrazole derivatives, process for producing the same and use thereof” (Takeda Pharmaceutical Company Limited, priority 2000, dated 2005).

For one data set, the system named is gastric mucosa. Put plainly: Disorder of gastric mucosa. The settings on record: stomach, 1000 mg/kg orally, fasted rats, 6 hours after dosing. Type of data set: in vivo, SD rats. The procedure: Disorder of Gastric Mucosa
Male SD origin male-rats (7 weeks old, CLEA Japan) were used. After 24 hours from the termination of food supply, samples were orally administered (5 mL/kg, b.w.). After 5.5 hours, Evan's Blue (0.5% Evan's Blue/saline) was injected intravenously (1 mL/rat) under no anesthesia. After 30 minutes from the shot, the stomach (with esophagus and duodenum of 1.5 to 2 cm length) was removed by celiotomy, and subsequently, the esophagus terminal was closed with a clip, and a 8 mL of 1% formalin solution was injected into the stomach through the duodenum, which was also closed with a clip after the injection. The stomach was left contacting with the 1% formalin solution for more than 10 minutes, and subsequently cut open from duodenum along the greater curvature of stomach. The stomach was washed and spread on a filter paper, and the length of each of the spots dyed by Evan's Blue (hemorrhagic portion: mucosal ablation to ulcer) was measured under a stereomicroscope, and the total length (mm) was calculated by a counter and recorded.

Data set [1] has as its system acetic acid induced rising and stretching. In words: Analgesic activity, acetic acid rising method. It is filed as in vivo, ICR-mice. To be noted: po, 20 min; 10 mg/kg orally, 30 minutes before 0.6% acetic acid i.p.; number of rising and stretching in 20 minutes; read-out: Repression rate (%) Dosage 10 mg/kg. The procedure:
Analgesic Activity Acetic Acid Rising Method Male ICR-mice (5 weeks old, CLEA Japan) were used (1 group, n=10), and a sample was orally administered (0.2 mL/10 g, b.w.). After 30 minutes, 0.6% acetic acid solution was injected to mice intraperitoneally (0.1 mL/10 g, b.w.), and the mice were immediately transferred into an observation cage made of a transparent acrylic resin. The number of rising and stretching during the following period of 20 minutes was counted. The repression rate (%) was calculated by comparing the average numbers between the sample groups and the control groups.

For another data set, the system named is yeast-induced pyrexia. Put plainly: Antipyretic activity in yeast-induced pyrexia. The settings on record: 10 mg/kg orally; maximum difference in body temperature vs control over 6 hours. It is filed as in vivo, SD rats. On the procedure:
Antipyretic Activity in Yeast-Induced Pyrexia Antipyretic activity was determined using male SD origin male-rats (7 weeks old, CLEA Japan, 1 group: n=6), according to the method of winter et. al. (J. Pharmacol. Exp. Ther., vol. 138, p. 405, 1963). Before 16 hours from measurement of body temperature, a suspension of 15% yeast in saline was injected subcutaneously (10 mL/kg, b.w.) into the rats to induce fever, and simultaneously supply of food was terminated while water was made available all the time. Each of the rats was raised separately. After 16 hours from the yeast shot, a thermistor terminal was inserted at an about 4 cm depth into rectum every hour, and the body temperatures after 30 seconds were recorded. After 18 hours, rats developing fevers consistently were selected, and a sample was orally administered to the rats (5 mL/kg, b.w.), while to the control, only the solvent was administered. After the administration, body temperatures were measured every hour for a period of 6 hours, and the maximum difference in body temperature between the rats in the sample group and in the control group were determined as Δ (° C.).

For a further data set, the system named is adjuvant arthritis. Put plainly: Anti-adjuvant-arthritic activity. It is filed as in vivo, SD rats. To be noted: 10 mg/kg orally once a day for 14 days; volume of left hind limb (not injected); day of reading not given. The procedure: Anti-Adjuvant-Arthritic Activity
Male SD origin male-rats (6 weeks old, CLEA Japan, 1 group: n=7) were used. The adjuvant arthritis method was conducted according to the method of Newbould B. B. et. al., (Brit. J. Pharmacol. Chemother., vol. 21, p. 127, 1963). Complete Freund's adjuvant (a suspension of killed tubercule bacillus in liquid paraffin at a concentration of 0.5%, 0.05 mL) was injected into the right hind limb footpad intracutaneouly to induce multiple arthritis. Samples were administered orally (10 mg/kg, b.w.), once a day for 14 days from the day before the injection day 0 to day 13. Volume of the left hind limb (not injected) was determined by the foot-volume measurement apparatus manufactured by Ugo Basile, on the day just before the adjuvant shot (Day 0), Day 10 and Day 14, and repression rate (%) was calculated comparing the values between the sample group and the control group.

Data set [2] has as its system carrageenin edema of right hind limb plantar. Put plainly: Anti-inflammatory activity, carrageenin edema method. It is filed as in vivo, SD-rats. The settings on record: po, 10 mg/kg orally. The procedure:
Anti-Inflammatory Activity
Male SD-rats (6 weeks old, CLEA Japan) were used (1 group, n=6). The Carrageenin edema method was performed according to the method of Winter et. al., (Proc. Soc. Exp. Biol. Med., vol. 111, p. 544-547, 1962). After the volume of right hind limb plantar of the rat was determined, a sample was orally administered (1.0 mL, b.w.), and immediately water was orally administered in an amount of 5 mL/rat. Meanwhile, only the solvent of the sample was orally administered to rats in control. After 1 hour, a solution of 1% carrageenin in saline (0.05 mL) was injected into the right hind limb plantar subcutaneously to induce edema. After 2 and 3 hours later from the injection, volumes of the right hind limb plantar were determined. The repression rate (%) of the sample was calculated by comparing the difference of the volumes of the plantar before the carrageenin shot and 2 and 3 hours after the shot between the sample groups and the control groups.
On the technique in general: Carrageenan injected into the paw causes an acute inflammation.

Data set [3] deals with mucosa of small intestine. Put plainly: Disorder of mucosa of small intestine. It is filed as in vivo, SD rats. To be noted: 300 mg/kg orally, freely fed rats, 6 hours after dosing. On the procedure: Disorder of Mucosa of Small Intestine Male SD origin male-rats (7 weeks old, CLEA Japan) were used. To the rats freely fed, samples were administered orally (5 mL/kg, b.w.). After 5.5 hours from the administration, Evan's Blue (0.5% Evan's Blue/saline) was injected (1 mL/rat) intravenously under no anesthesia. After 30 minutes from the shot, the intestine was removed by celiotomy and the area thereof facing mesentery was cut open. After removal of intestinal content, the spots in the intestine dyed by Evan's Blue were measured under a stereomicroscope, and the total length (mm) of the spots was determined by a counter and recorded.

Another data set has as its target T1, human COX-1 (Homo sapiens, UniProt P23219).
T1 construct: made in house; host or cells: Sf-21 insect cells (recombinant baculovirus BAC-COX1, pFASTBAC1); microsome fraction
In words: Determination of COX-1 inhibitory activity (microsome fraction, chemiluminescence). It is filed as biochemical. The settings on record: microsome fraction 40 μg, arachidonic acid, 37° C. 25 minutes preincubation; read-out: Repression rate IC50 (μM) COX-1. On the procedure: A 1.8 kb DNA fragment containing human COX-1 cDNA (FASEB J., vol. 5 (9), p. 2304-2312 (1991)) prepared by the PCR method was inserted into plasmid pFASTBAC1 (CIBCOBRL) to obtain a plasmid pFBCOX1.
Using the plasmid pFBCOX1 and BAC-TO-BAC Baculovirus Expression System (GIBCOBRL), a virus stock BAC-COX1 of the recombinant baculovirus was prepared.
Sf-21 cells were inoculated in 125 mL of Sf-900 II SFM medium (GIBCOBRL) at a concentration of 1×10^6 cells/mL, and the medium was incubated at 27° C. for 24 hours. 0.75 mL of the virus stock BAC-COX1 of the recombinant baculovirus was added thereto, and the mixture was incubated further for 72 hours. The cells were separated from the medium by centrifugation (3000 rpm, 10 min), and washed with PBS twice. The cells were suspended in 10 mL of a Lysis buffer (0.1M Tris-HCl (pH 7.4), 5 mM EDTA), and were treated with a homogenizer (POLYTRON) three times at 20000 rpm for 20 seconds so that the cells were crushed. The supernatant obtained after centrifugation (2000 rpm, 10 minutes) was further centrifuged (40000 rpm, 45 minutes) to give a precipitate, which was resuspended in a Lysis buffer (0.1M Tris-HCl (pH 7.4), 5 mM EDTA), and the suspension was stored at −80° C.
(§1) Determination of COX-1 and COX-2 Inhibitory Activities
(§2) To a mixture of 20 μL of a reaction buffer previously concentrated 10 times (1M Tris-HCl (pH8.0), 50 mM EDTA, 1.0% Tween 20, 50 mM luminol, 100 μM hematin), 20 μL of the microsome fractions (COX-1: 40 μg, COX-2: 20 μg), and 55 μL of distilled water, a sample compound dissolved in DMF (5 μL) was added, and the mixture was left at 37° C. for 25 minutes. The reaction was started by the addition of 20 μM arachidonic acid (100 μL), and chemiluminescence amount during the 10-second period after the addition of arachidonic acid was determined by the use of Lumistar (BMG Lab technologies, GmbH). The inhibition rate was calculated, regarding that the enzyme activity when DMF ([…]) was added was 100%, and the enzyme activity when 4 mM flurbiprofen (5 μL) was added was 0%.

The next data set has as its target T2, human COX-2 (Homo sapiens, UniProt P35354).
T2 construct: made in house; host or cells: Sf-21 insect cells (recombinant baculovirus BAC-COX2, pFASTBAC1); microsome fraction
T2 sequence (P35354 18-604): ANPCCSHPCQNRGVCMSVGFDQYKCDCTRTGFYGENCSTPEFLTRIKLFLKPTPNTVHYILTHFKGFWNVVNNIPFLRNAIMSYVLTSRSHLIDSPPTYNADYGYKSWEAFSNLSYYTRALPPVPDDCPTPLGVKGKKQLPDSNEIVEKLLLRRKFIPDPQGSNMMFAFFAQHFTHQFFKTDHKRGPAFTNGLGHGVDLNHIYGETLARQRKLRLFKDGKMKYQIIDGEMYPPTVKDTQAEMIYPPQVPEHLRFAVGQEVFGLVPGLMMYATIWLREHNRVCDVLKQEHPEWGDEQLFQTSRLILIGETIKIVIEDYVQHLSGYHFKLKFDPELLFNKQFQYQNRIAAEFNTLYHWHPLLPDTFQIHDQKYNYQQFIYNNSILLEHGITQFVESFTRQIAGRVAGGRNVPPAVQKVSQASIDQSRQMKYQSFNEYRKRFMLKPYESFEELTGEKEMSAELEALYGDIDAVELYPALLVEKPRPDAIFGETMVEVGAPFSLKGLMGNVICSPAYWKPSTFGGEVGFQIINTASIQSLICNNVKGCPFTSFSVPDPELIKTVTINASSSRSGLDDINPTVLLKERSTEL
Put plainly: Determination of COX-2 inhibitory activity (microsome fraction, chemiluminescence). To be noted: microsome fraction 20 μg, arachidonic acid, 37° C. 25 minutes preincubation; read-out: Repression rate IC50 (μM) COX-2. Type of data set: biochemical. On the procedure:
A 1.8 kb DNA fragment containing human COX-2 cDNA (Proc. Natl. Acad. Sci. U.S.A., vol. 89 (16), p. 7384-7388 (1992)) prepared by the PCR method was inserted into plasmid pFASTBAC1 (CIBCOBRAL) to obtain a plasmid pFBCOX2.
Using the plasmid pFBCOX2 and BAC-TO-BAC Baculovirus Expression System (GIBCOBRAL), a virus stock BAC-COX2 of the recombinant baculovirus was prepared.
Sf-21 cells were inoculated in 125 mL of LSf-900 II SFM medium (GIBCOBRAL) at a concentration of 1×10^6 cells/mL, and the medium was incubated at 27° C. for 24 hours. 0.75 mL of the virus stock BAC-COX2 of the recombinant baculovirus was added thereto, and was incubated further for 72 hours. The cells were separated from the medium by centrifugation (3000 rpm, 10 min), and washed with PBS twice. The cells were suspended in 10 mL of a Lysis buffer (0.1M Tris-HCl (pH 7.4), 5 mM EDTA), and were treated with a homogenizer (POLYTRON), three times at 20000 rpm for 20 seconds so that the cells were crushed. The supernatant thus obtained after centrifugation (2000 rpm, 10 minutes) was further centrifuged (40000 rpm, 45 minutes) to obtain a precipitate, which was resuspended in a Lysis buffer (0.1M Tris-HCl (pH 7.4), 5 mM EDTA), and the suspension was stored at −80° C.
as §1, §2

Each structure is given as a SMILES string. Where two headings read alike, the source gives them in different places. Marks after values point to notes of the source that are not given here.

T1 sequence (P23219 24-599): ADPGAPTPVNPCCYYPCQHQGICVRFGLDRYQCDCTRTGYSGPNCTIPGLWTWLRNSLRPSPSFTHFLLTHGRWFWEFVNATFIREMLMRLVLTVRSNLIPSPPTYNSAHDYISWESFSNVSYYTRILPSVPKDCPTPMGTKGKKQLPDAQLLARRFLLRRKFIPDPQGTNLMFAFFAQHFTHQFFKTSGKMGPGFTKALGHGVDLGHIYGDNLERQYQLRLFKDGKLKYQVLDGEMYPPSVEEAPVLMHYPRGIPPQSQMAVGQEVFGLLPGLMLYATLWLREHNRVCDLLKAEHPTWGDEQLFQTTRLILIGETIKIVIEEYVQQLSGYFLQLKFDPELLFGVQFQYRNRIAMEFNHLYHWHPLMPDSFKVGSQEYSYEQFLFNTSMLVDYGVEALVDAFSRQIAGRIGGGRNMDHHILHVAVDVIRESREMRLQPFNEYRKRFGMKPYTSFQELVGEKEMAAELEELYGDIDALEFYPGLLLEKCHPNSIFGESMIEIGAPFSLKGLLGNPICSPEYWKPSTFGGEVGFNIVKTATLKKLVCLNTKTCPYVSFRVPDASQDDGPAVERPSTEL

The compound `Cc1nn(-c2ccccn2)c2[nH]c3cc(F)c(F)cc3c(=O)c12` [Example 2-91, 6,7-Difluoro-3-methyl-1-(2-pyridinyl)-1,9-dihydro-4H-pyrazolo[3,4-b]quinolin-4-one] gave a melting point of 274 to 277 °C. In addition, the “Total length of dyed spots (mm)” value in the data set with gastric mucosa is listed as 0 (1000 mg/kg) mm. Also, the inhibition in vivo at 10 mg/kg in [1] was determined as 65%. Moreover, in the data set on yeast-induced pyrexia, the “Δ (° C.) Dosage 10 mg/kg” value is recorded as 1.5** ° C. For the same compound, the “Repression rate (%) Dosage 10 mg/kg” value in the data set with adjuvant arthritis was 76** %. Besides, the inhibition in vivo at 10 mg/kg in [2] (2 hr after carrageenin injection, read-out: Repression rate (%) Dosage 10 mg/kg 2 hr later) came to 51%. In data set [2] (3 hr after carrageenin injection, read-out: Repression rate (%) Dosage 10 mg/kg 3 hr later), the inhibition in vivo at 10 mg/kg came out at 42%.

Turning to `Cc1nn(-c2ccccn2)c2[nH]c3cc(F)c(F)cc3c(=O)c12.O` [Example 2-92, 6,7-Difluoro-3-methyl-1-(2-pyridinyl)-1,9-dihydro-4H-pyrazolo[3,4-b]quinolin-4-one monohydrate], the “Total length of dyed spots (mm)” value in [3] is 0 (300 mg/kg) mm; with gastric mucosa, 0 (1000 mg/kg) mm. The half-inhibitory concentration (IC50) at human COX-1 turned out to be 0.677 µM; at human COX-2, 0.465 µM.

As a reminder, the melting point is the temperature, or range, at which the solid turns liquid. The term IC50 denotes the concentration needed to halve the response being measured.
